# Experimental data from PubChem BioAssay (NCI).
#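 Assay format: 96-well plates, 48-hour exposure. At the TGI there is no net growth.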
# How the values were obtained:
# Assay in all cases: DTP human tumour cell line panel, 48 h
# [1] = tested on: UACC-62 melanoma
# [2] = tested on: U251 CNS
# [3] = tested on: SNB-19 CNS
# [4] = tested on: IGROV1 ovarian
# [5] = tested on: T-47D breast
# [6] = tested on: BT-549 breast
# [7] = tested on: SK-MEL-2 melanoma
# [8] = tested on: LOX IMVI melanoma
# [9] = tested on: HL-60(TB) leukemia
# [10] = tested on: NCI-H522 lung
# [11] = tested on: HS 578T breast
# [12] = tested on: SW-620 colon
# [13] = tested on: UACC-257 melanoma
# [14] = tested on: MALME-3M melanoma
# [15] = tested on: SNB-75 CNS
# [16] = tested on: M14 melanoma
# [17] = tested on: SF-268 CNS
# [18] = tested on: OVCAR-4 ovarian
# [19] = tested on: COLO 205 colon
# [20] = tested on: NCI-H226 lung
# [21] = tested on: NCI/ADR-RES ovarian
# [22] = tested on: CCRF-CEM leukemia
# [23] = tested on: NCI-H23 lung
# [24] = tested on: A498 renal
# [25] = tested on: HCT-15 colon
# [26] = tested on: CAKI-1 renal
# [27] = tested on: HOP-62 NSCLC
# [28] = tested on: RPMI-8226 leukemia
# [29] = tested on: MCF7 breast
# [30] = tested on: OVCAR-5 ovarian
# [31] = tested on: RXF 393 renal
# [32] = tested on: UO-31 renal
# [33] = tested on: NCI-H460 lung
# [34] = tested on: K-562 leukemia
# [35] = tested on: MDA-MB-435
# [36] = tested on: KM12 colon
# [37] = tested on: SK-MEL-5 melanoma
# [38] = tested on: HT29 colon
# [39] = tested on: SF-295 CNS
# [40] = tested on: SK-OV-3 ovarian
# [41] = tested on: HOP-92 NSCLC
# [42] = tested on: SR leukemia
# [43] = tested on: SN12C renal
# [44] = tested on: HCC-2998 colon
# [45] = tested on: MOLT-4 leukemia
# [46] = tested on: OVCAR-3 ovarian
# [47] = tested on: MDA-MB-231 breast
# [48] = tested on: EKVX NSCLC
# [49] = tested on: SK-MEL-28 melanoma
# [50] = tested on: MDA-N
# [51] = tested on: 786-0 renal
# [52] = tested on: ACHN renal
# [53] = tested on: SF-539 CNS
# [54] = tested on: HCT-116 colon
# [55] = tested on: OVCAR-8 ovarian
# [56] = tested on: DU-145 prostate
# [57] = tested on: TK-10 renal
# [58] = tested on: PC-3 prostate
# [59] = tested on: A549 NSCLC
smiles,measurement,setting,value
COc1ccc(-c2csc(=Nc3ccccc3)n2CC(O)c2ccc([N+](=O)[O-])cc2)cc1 (configuration not stated),TGI,[1],> 100 µM
same,TGI,[2],> 100 µM
same,TGI,[3],> 100 µM
same,TGI,[4],> 100 µM
same,TGI,[5],> 100 µM
same,TGI,[6],> 100 µM
same,TGI,[7],> 100 µM
same,TGI,[8],> 100 µM
same,TGI,[9],> 100 µM
same,TGI,[10],> 100 µM
same,TGI,[11],> 100 µM
same,TGI,[12],> 100 µM
same,TGI,[13],> 100 µM
same,TGI,[14],> 100 µM
same,TGI,[15],> 100 µM
same,TGI,[16],> 100 µM
same,TGI,[17],> 100 µM
same,TGI,[18],> 100 µM
same,TGI,[19],> 100 µM
same,TGI,[20],> 100 µM
same,TGI,[21],> 100 µM
same,TGI,[22],> 100 µM
same,TGI,[23],> 100 µM
same,TGI,[24],> 100 µM
same,TGI,[25],> 100 µM
same,TGI,[26],> 100 µM
same,TGI,[27],> 100 µM
same,TGI,[28],> 100 µM
same,TGI,[29],> 100 µM
same,TGI,[30],> 100 µM
same,TGI,[31],> 100 µM
same,TGI,[32],> 100 µM
same,TGI,[33],> 100 µM
same,TGI,[34],> 100 µM
same,TGI,[35],> 100 µM
same,TGI,[36],> 100 µM
same,TGI,[37],> 100 µM
same,TGI,[38],> 100 µM
same,TGI,[39],> 100 µM
same,TGI,[40],> 100 µM
same,TGI,[41],> 100 µM
same,TGI,[42],> 100 µM
same,TGI,[43],> 100 µM
same,TGI,[44],> 100 µM
same,TGI,[45],> 100 µM
same,TGI,[46],> 100 µM
same,TGI,[47],> 100 µM
same,TGI,[48],> 100 µM
same,TGI,[49],> 100 µM
same,TGI,[50],> 100 µM
same,TGI,[51],> 100 µM
same,TGI,[52],> 100 µM
same,TGI,[53],> 100 µM
same,TGI,[54],> 100 µM
same,TGI,[55],> 100 µM
same,TGI,[56],> 100 µM
same,TGI,[57],> 100 µM
same,TGI,[58],> 100 µM
same,TGI,[59],> 100 µM
CN(C)CCNc1ccc2c(=O)n(CCN(C)C)c(=O)n3c4ccc([N+](=O)[O-])cc4c(=O)c1c23,TGI,[1],3.17 µM
same,TGI,[2],2.88 µM
same,TGI,[3],4.51 µM
same,TGI,[4],1.29 µM
same,TGI,[5],6.89 µM
same,TGI,[6],2.66 µM
same,TGI,[7],1.31 µM
same,TGI,[8],1.1 µM
same,TGI,[9],0.417 µM
same,TGI,[10],0.263 µM
same,TGI,[11],3.09 µM
same,TGI,[12],1.78 µM
same,TGI,[13],4.42 µM
same,TGI,[14],1.37 µM
same,TGI,[15],1.26 µM
same,TGI,[16],2.38 µM
same,TGI,[17],3.33 µM
same,TGI,[18],2.8 µM
same,TGI,[19],2.12 µM
same,TGI,[20],4.01 µM
same,TGI,[21],2.1 µM
same,TGI,[22],0.381 µM
same,TGI,[23],0.777 µM
same,TGI,[24],5.55 µM
same,TGI,[25],1.49 µM
same,TGI,[26],10.2 µM
same,TGI,[27],3.85 µM
same,TGI,[28],0.605 µM
same,TGI,[29],1.04 µM
same,TGI,[30],4.54 µM
same,TGI,[31],0.996 µM
same,TGI,[32],4.06 µM
same,TGI,[33],1.53 µM
same,TGI,[34],1.94 µM
same,TGI,[35],1.83 µM
same,TGI,[36],4.95 µM
same,TGI,[37],2.23 µM
same,TGI,[38],0.658 µM
same,TGI,[39],2.31 µM
same,TGI,[40],6.72 µM
same,TGI,[41],3.33 µM
same,TGI,[42],0.581 µM
same,TGI,[43],1.56 µM
same,TGI,[44],2.27 µM
same,TGI,[45],0.0685 µM
same,TGI,[46],2.27 µM
same,TGI,[47],2.21 µM
same,TGI,[48],2.83 µM
same,TGI,[49],2.66 µM
same,TGI,[50],1.38 µM
same,TGI,[51],2.74 µM
same,TGI,[52],3.83 µM
same,TGI,[53],1.68 µM
same,TGI,[54],1.24 µM
same,TGI,[55],3.99 µM
same,TGI,[56],6.54 µM
same,TGI,[57],7.1 µM
same,TGI,[58],2.43 µM
same,TGI,[59],2.26 µM
O=C(NNC(=S)Nc1ccccc1)c1ccccc1Nc1ccccc1C(=O)NNC(=S)Nc1ccccc1,TGI,[1],26.9 µM
same,TGI,[2],50.7 µM
same,TGI,[3],72.4 µM
same,TGI,[4],32.3 µM
same,TGI,[5],> 100 µM
same,TGI,[6],57.7 µM
same,TGI,[7],47.1 µM
same,TGI,[8],26 µM
same,TGI,[9],> 100 µM
same,TGI,[10],46 µM
same,TGI,[11],74.9 µM
same,TGI,[12],> 100 µM
same,TGI,[13],56.7 µM
same,TGI,[14],52.3 µM
same,TGI,[15],> 100 µM
same,TGI,[16],41.5 µM
same,TGI,[17],60.6 µM
same,TGI,[18],> 100 µM
same,TGI,[19],41.5 µM
same,TGI,[20],77.9 µM
same,TGI,[21],> 100 µM
same,TGI,[22],> 100 µM
same,TGI,[23],41.5 µM
same,TGI,[24],> 100 µM
same,TGI,[25],> 100 µM
same,TGI,[26],> 100 µM
same,TGI,[27],60.7 µM
same,TGI,[28],> 100 µM
same,TGI,[29],83.8 µM
same,TGI,[30],33.6 µM
same,TGI,[31],45.4 µM
same,TGI,[32],44.6 µM
same,TGI,[33],49 µM
same,TGI,[34],> 100 µM
same,TGI,[35],> 100 µM
same,TGI,[36],> 100 µM
same,TGI,[37],58.2 µM
same,TGI,[38],76.6 µM
same,TGI,[39],57.6 µM
same,TGI,[40],89.8 µM
same,TGI,[41],30.5 µM
same,TGI,[42],> 100 µM
same,TGI,[43],57.9 µM
same,TGI,[44],37.1 µM
same,TGI,[45],> 100 µM
same,TGI,[46],38.4 µM
same,TGI,[47],61.3 µM
same,TGI,[48],85.3 µM
same,TGI,[49],> 100 µM
same,TGI,[50],> 100 µM
same,TGI,[51],41.5 µM
same,TGI,[52],> 100 µM
same,TGI,[53],59.8 µM
same,TGI,[54],35.5 µM
same,TGI,[55],52.2 µM
same,TGI,[56],> 100 µM
same,TGI,[57],68.7 µM
same,TGI,[58],64.8 µM
same,TGI,[59],> 100 µM
